In US20240390350A1, “PHENYL CORE COMPOUNDS AS MGLU5 NEGATIVE ALLOSTERIC MODULATORS AND METHODS OF MAKING AND USING THE SAME” (Vanderbilt University, priority 2021, published 2024):

Each molecule was assayed against T1, human mGlu5 (Homo sapiens, UniProt P41594) (assay: mGlu5 negative allosteric modulator Ca2+ flux assay in HEK 293A cells (Table 1)). Details: HEK 293A cells stably expressing mGlu5; Ca2+ flux (Fluo-4); decrease of glutamate EC80 response; read-out: hmGlu5 NAM IC50.
T1 construct: expressed in transfected cells; host or cells: HEK 293A
T1 sequence (P41594 21-1212): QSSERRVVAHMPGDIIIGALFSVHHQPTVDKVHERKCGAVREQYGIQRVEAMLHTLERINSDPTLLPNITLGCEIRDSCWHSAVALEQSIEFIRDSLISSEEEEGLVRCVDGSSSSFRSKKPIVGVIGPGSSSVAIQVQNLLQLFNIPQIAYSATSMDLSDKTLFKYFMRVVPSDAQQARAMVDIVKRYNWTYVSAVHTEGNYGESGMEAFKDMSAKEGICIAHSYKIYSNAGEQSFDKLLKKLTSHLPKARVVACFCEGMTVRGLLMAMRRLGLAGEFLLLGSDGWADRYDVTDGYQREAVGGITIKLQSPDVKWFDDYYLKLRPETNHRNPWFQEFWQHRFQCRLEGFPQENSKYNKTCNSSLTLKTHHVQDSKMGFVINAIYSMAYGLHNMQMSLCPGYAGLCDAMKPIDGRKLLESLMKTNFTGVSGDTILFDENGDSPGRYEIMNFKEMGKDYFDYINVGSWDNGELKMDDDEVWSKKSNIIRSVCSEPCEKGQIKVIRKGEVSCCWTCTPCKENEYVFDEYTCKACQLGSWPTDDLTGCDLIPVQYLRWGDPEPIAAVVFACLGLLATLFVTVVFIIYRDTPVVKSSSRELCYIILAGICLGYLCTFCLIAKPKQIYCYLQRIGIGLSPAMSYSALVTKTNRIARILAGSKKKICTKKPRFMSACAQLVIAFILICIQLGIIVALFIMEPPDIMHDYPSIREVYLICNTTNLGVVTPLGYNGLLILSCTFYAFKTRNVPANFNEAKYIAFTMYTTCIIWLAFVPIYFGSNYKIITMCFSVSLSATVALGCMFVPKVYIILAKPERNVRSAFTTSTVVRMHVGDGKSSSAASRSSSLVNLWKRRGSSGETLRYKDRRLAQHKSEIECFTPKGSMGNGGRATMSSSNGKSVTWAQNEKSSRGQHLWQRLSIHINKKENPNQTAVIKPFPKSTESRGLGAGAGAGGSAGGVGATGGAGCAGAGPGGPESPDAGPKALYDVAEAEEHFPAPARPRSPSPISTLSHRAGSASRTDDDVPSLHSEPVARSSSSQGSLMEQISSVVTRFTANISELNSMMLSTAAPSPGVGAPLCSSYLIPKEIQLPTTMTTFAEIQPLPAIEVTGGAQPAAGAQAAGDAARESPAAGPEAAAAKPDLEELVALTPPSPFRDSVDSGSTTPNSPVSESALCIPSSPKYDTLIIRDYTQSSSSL
Format: cell-based

| IC50 | SMILES |
| --- | --- |
| 136 nM | Cc1csc(NC(=O)c2cc(-c3cnccc3C)cc(F)c2F)n1 [Compound 2, 2,3-difluoro-5-(4-methylpyridin-3-yl)-N-(4-methylthiazol-2-yl)benzamide] |
| 95 nM | Cc1cc(C(=O)Nc2ccccn2)cc(-c2cnccc2C)c1 [Compound 5, 3-Methyl-5-(4-methylpyridin-3-yl)-N-(pyridin-2-yl)benzamide] |
| > 10000 nM | Cc1ccncc1-c1cc(F)c(F)c(C(=O)Nc2ccccn2)c1 [Compound 8, 2,3-difluoro-5-(4-methylpyridin-3-yl)-N-(pyridin-2-yl)benzamide] |
| 1880 nM | Cc1ccncc1-c1ccc(F)c(C(=O)Nc2ccccn2)c1 [Compound 11, 2-fluoro-5-(4-methylpyridin-3-yl)-N-(pyridin-2-yl)benzamide] |
| 1060 nM | Cc1ccncc1-c1ccc(F)c(C(=O)Nc2ccc(F)cn2)c1 [Compound 12, 2-fluoro-N-(5-fluoropyridin-2-yl)-5-(4-methylpyridin-3-yl)benzamide] |
| 1860 nM | Cc1ccncc1-c1cc(Cl)cc(C(=O)Nc2ccc(F)cn2)c1 [Compound 17, 3-chloro-N-(5-fluoropyridin-2-yl)-5-(4-methylpyridin-3-yl)benzamide] |
| 2590 nM | Cc1ccncc1-c1cc(C(=O)Nc2ccccn2)cc(C(F)(F)F)c1 [Compound 19, 3-(4-methylpyridin-3-yl)-N-(pyridin-2-yl)-5-(trifluoromethyl)benzamide] |
| 3370 nM | Cc1ccncc1-c1cc(C(=O)Nc2ccc(F)cn2)cc(C(F)(F)F)c1 [Compound 21, N-(5-fluoropyridin-2-yl)-3-(4-methylpyridin-3-yl)-5-(trifluoromethyl)benzamide] |
| 198 nM | Cc1csc(NC(=O)c2cc(C#N)cc(-c3cnccc3C)c2)n1 [Compound 22, 3-cyano-5-(4-methylpyridin-3-yl)-N-(4-methylthiazol-2-yl)benzamide] |
| 273 nM | Cc1cccc(NC(=O)c2cc(C#N)cc(-c3cnccc3C)c2)n1 [Compound 24, 3-cyano-N-(6-methylpyridin-2-yl)-5-(4-methylpyridin-3-yl)benzamide] |
| > 10000 nM | Cc1nn(C)cc1-c1ccc(F)c(C(=O)Nc2ccc(F)cn2)c1 [Compound 26, 5-(1,3-dimethyl-1H-pyrazol-4-yl)-2-fluoro-N-(5-fluoropyridin-2-yl)benzamide] |
| > 10000 nM | Cc1nn(C)c(C)c1-c1cc(F)cc(C(=O)Nc2ccc(F)cn2)c1 [Compound 28, 3-fluoro-N-(5-fluoropyridin-2-yl)-5-(1,3,5-trimethyl-1H-pyrazol-4-yl)benzamide] |
| 101 nM | Cc1cccc(NC(=O)c2cc(F)c(F)c(-c3cnccc3C)c2)n1 [Compound 30, 3,4-difluoro-N-(6-methylpyridin-2-yl)-5-(4-methylpyridin-3-yl)benzamide] |
| 161 nM | O=C(Nc1ccc(F)cn1)c1cc(-c2cncc(F)c2)cc(F)c1F [Compound 34, 2,3-difluoro-N-(5-fluoropyridin-2-yl)-5-(5-fluoropyridin-3-yl)benzamide] |
| 4170 nM | Cc1ncc(-c2cc(F)c(F)c(C(=O)Nc3ccc(F)cn3)c2)s1 [Compound 35, 2,3-difluoro-N-(5-fluoropyridin-2-yl)-5-(2-methylthiazol-5-yl)benzamide] |
| > 10000 nM | Cn1nc(C(F)(F)F)cc1-c1cc(F)c(F)c(C(=O)Nc2ccc(F)cn2)c1 [Compound 36, 2,3-difluoro-N-(5-fluoropyridin-2-yl)-5-(1-methyl-3-(trifluoromethyl)-1H-pyrazol-5-yl)benzamide] |
| 6420 nM | Cc1ccncc1-c1cc(C(=O)Nc2ccc(F)cn2)c(F)cc1F [Compound 38, 2,4-difluoro-N-(5-fluoropyridin-2-yl)-5-(4-methylpyridin-3-yl)benzamide] |
| 193 nM | O=C(Nc1cccc(Cl)n1)c1cc(-c2cncc(F)c2)cc(F)c1F [Compound 42, N-(6-chloropyridin-2-yl)-2,3-difluoro-5-(5-fluoropyridin-3-yl)benzamide] |
| 1230 nM | Cc1cccc(NC(=O)c2cc(F)c(F)c(-c3cnc(C)s3)c2)n1 [Compound 45, 3,4-difluoro-N-(6-methylpyridin-2-yl)-5-(2-methylthiazol-5-yl)benzamide] |

Continued, molecule first:

| SMILES | IC50 |
| --- | --- |
| Cc1csc(NC(=O)c2cc(-c3cnccc3C)ccc2F)n1 [Compound 1, 2-fluoro-5-(4-methylpyridin-3-yl)-N-(4-methylthiazol-2-yl)benzamide] | 734 nM |
| Cc1csc(NC(=O)c2cc(F)cc(-c3cnccc3C)c2)n1 [Compound 3, 3-fluoro-5-(4-methylpyridin-3-yl)-N-(4-methylthiazol-2-yl)benzamide] | 540 nM |
| Cc1cc(C(=O)Nc2cccc(C)n2)cc(-c2cnccc2C)c1 [Compound 4, 3-methyl-N-(6-methylpyridin-2-yl)-5-(4-methylpyridin-3-yl)benzamide] | 43 nM |
| Cc1cc(C(=O)Nc2ccc(F)cn2)cc(-c2cnccc2C)c1 [Compound 6, N-(5-fluoropyridin-2-yl)-3-methyl-5-(4-methylpyridin-3-yl)benzamide] | 370 nM |
| Cc1cc(C(=O)Nc2nc(C)cs2)cc(-c2cnccc2C)c1 [Compound 7, 3-Methyl-5-(4-methylpyridin-3-yl)-N-(4-methylthiazol-2-yl)benzamidecarboxamide] | 127 nM |
| Cc1ccncc1-c1cc(F)c(F)c(C(=O)Nc2ccc(F)cn2)c1 [Compound 9, 2,3-difluoro-N-(5-fluoropyridin-2-yl)-5-(4-methylpyridin-3-yl)benzamide] | 1030 nM |
| Cc1cccc(NC(=O)c2cc(-c3cnccc3C)cc(F)c2F)n1 [Compound 10, 2,3-difluoro-N-(6-methylpyridin-2-yl)-5-(4-methylpyridin-3-yl)benzamide] | 322 nM |
| Cc1cccc(NC(=O)c2cc(-c3cnccc3C)ccc2F)n1 [Compound 13, 2-fluoro-N-(6-methylpyridin-2-yl)-5-(4-methylpyridin-3-yl)benzamide] | 366 nM |
| Cc1csc(NC(=O)c2cc(Cl)cc(-c3cnccc3C)c2)n1 [Compound 14, 3-chloro-5-(4-methylpyridin-3-yl)-N-(4-methylthiazol-2-yl)benzamide] | 631 nM |
| Cc1ccncc1-c1cc(Cl)cc(C(=O)Nc2ccccn2)c1 [Compound 15, 3-chloro-5-(4-methylpyridin-3-yl)-N-(pyridin-2-yl)benzamide] | 328 nM |
| Cc1cccc(NC(=O)c2cc(Cl)cc(-c3cnccc3C)c2)n1 [Compound 16, 3-chloro-N-(6-methylpyridin-2-yl)-5-(4-methylpyridin-3-yl)benzamide] | 104 nM |
| Cc1csc(NC(=O)c2cc(-c3cnccc3C)cc(C(F)(F)F)c2)n1 [Compound 18, 3-(4-methylpyridin-3-yl)-N-(4-methylthiazol-2-yl)-5-(trifluoromethyl)benzamide] | > 10000 nM |
| Cc1cccc(NC(=O)c2cc(-c3cnccc3C)cc(C(F)(F)F)c2)n1 [Compound 20, N-(6-methylpyridin-2-yl)-3-(4-methylpyridin-3-yl)-5-(trifluoromethyl)benzamide] | 1160 nM |
| Cc1ccncc1-c1cc(C#N)cc(C(=O)Nc2ccccn2)c1 [Compound 23, 3-cyano-5-(4-methylpyridin-3-yl)-N-(pyridin-2-yl)benzamide] | 1210 nM |
| Cc1ccncc1-c1cc(C#N)cc(C(=O)Nc2ccc(F)cn2)c1 [Compound 25, 3-cyano-N-(5-fluoropyridin-2-yl)-5-(4-methylpyridin-3-yl)benzamide] | 989 nM |
| Cn1cncc1-c1cc(F)cc(C(=O)Nc2ccc(F)cn2)c1 [Compound 27, 3-fluoro-N-(5-fluoropyridin-2-yl)-5-(1-methyl-1H-imidazol-5-yl)benzamide] | > 10000 nM |
| Cc1ccncc1-c1cc(C(=O)Nc2ccc(F)cn2)cc(F)c1F [Compound 29, 3,4-difluoro-N-(5-fluoropyridin-2-yl)-5-(4-methylpyridin-3-yl)benzamide] | 2240 nM |
| Cc1ccncc1-c1cc(C(=O)Nc2ccc(Cl)cn2)cc(F)c1F [Compound 31, N-(5-chloropyridin-2-yl)-3,4-difluoro-5-(4-methylpyridin-3-yl)benzamide] | 677 nM |
| Cn1nccc1-c1cc(F)c(F)c(C(=O)Nc2ccc(F)cn2)c1 [Compound 32, 2,3-difluoro-N-(5-fluoropyridin-2-yl)-5-(1-methyl-1H-pyrazol-5-yl)benzamide] | 4890 nM |
| Cc1nn(C)cc1-c1cc(F)c(F)c(C(=O)Nc2ccc(F)cn2)c1 [Compound 33, 5-(1,3-dimethyl-1H-pyrazol-4-yl)-2,3-difluoro-N-(5-fluoropyridin-2-yl)benzamide] | 3460 nM |
| Cc1csc(NC(=O)c2cc(-c3cnccc3C)c(F)cc2F)n1 [Compound 37, 2,4-difluoro-5-(4-methylpyridin-3-yl)-N-(4-methylthiazol-2-yl)benzamide] | 437 nM |
| Cc1ccncc1-c1cc(C(=O)Nc2ccc(Cl)cn2)c(F)cc1F [Compound 39, N-(5-chloropyridin-2-yl)-2,4-difluoro-5-(4-methylpyridin-3-yl)benzamide] | 974 nM |
| Cc1csc(NC(=O)c2cc(-c3cncc(F)c3)cc(F)c2F)n1 [Compound 40, 2,3-difluoro-5-(5-fluoropyridin-3-yl)-N-(4-methylthiazol-2-yl)benzamide] | 93 nM |
| Cc1cccc(NC(=O)c2cc(F)c(F)c(-c3ccnn3C)c2)n1 [Compound 43, 3,4-difluoro-5-(1-methyl-1H-pyrazol-5-yl)-N-(6-methylpyridin-2-yl)benzamide] | 4440 nM |
| Cc1cccc(NC(=O)c2cc(F)c(F)c(-c3cc(C(F)(F)F)nn3C)c2)n1 [Compound 44, 3,4-difluoro-5-(1-methyl-3-(trifluoromethyl)-1H-pyrazol-5-yl)-N-(6-methylpyridin-2-yl)benzamide] | 3510 nM |
| Cc1cccc(NC(=O)c2cc(F)c(F)c(-c3cncc(F)c3)c2)n1 [Compound 46, 3,4-difluoro-5-(5-fluoropyridin-3-yl)-N-(6-methylpyridin-2-yl)benzamide] | 94 nM |
| Cc1cccc(NC(=O)c2cc(-c3cnccc3C)c(F)cc2F)n1 [Compound 47, 2,4-difluoro-N-(6-methylpyridin-2-yl)-5-(4-methylpyridin-3-yl)benzamide] | 105 nM |
